Reference: patent US20050112123A1, “Methods of treating proteinuria” (priority 2003, published 2005)
“Also recorded” adds a separate entry of the source.

Legend:
[1] = tested on: podocytes; experiment: Hoechst 33342 staining for apoptosis and binucleated cells; assay type: cell-based; conditions: at the concentrations of ATRA used in these experiments; statistically insignificant
Experimental: To ensure that the anti-proliferative effects of ATRA were not confounded by podocyte apoptosis in podocytes or bi-nucleated cells, Hoechst 33342 (Molecular Probes, Eugene, Oreg., USA) staining was performed as previously reported. Hiromura et al. (1999) J Clin Invest 103:597-604. Careful morphological analysis was performed and the percentage of apoptotic cells was quantitated in adherent and non-adherent cells using inverted fluorescent microscopy as previously described. Hiromura et al. (1999) supra; and Mooney et al. (1997) J Immunol 159:3949-3960.

[2] = tested on: primary mouse podocytes; experiment: Western blot analysis of nephrin and podocin, primary mouse podocytes; assay type: cell-based; conditions: primary mouse cultures, FIG. 2
Experimental: (§1) Experiments were also performed on podocytes derived from C57/bl mice. Glomeruli were sieved and prepared as previously described. […] 61:40-50. Podocytes were grown on collagen 1 coated plates with MGEC-media containing 5% fetal bovine serum (FBS: Summit biotechnology, Ft. Collins, Colo., USA), penicillin (100 U/ml), streptomycin (100 μg/ml), and glutamine (2 mmol/L; all Irvine Scientific, Santa Ana, Calif., USA) at 37° C. in 95% air/5% CO2. Podocytes were identified by previously described criteria (Shankland et al. (1999) supra) and by confirming the presence of podocyte specific proteins—including WT-1, nephrin, podocin, and ezrin—by immunostaining.
(§2) Exposure ofpodocvtes to ATRA. Rat podocytes, mouse podocytes, and growth permissive HSMP were plated at a concentration of 15,000 cell/cm^2 in standard media and allowed to adhere overnight.

[3] = tested on: transgenic podocytes; experiment: Immunostaining of HIV transgenic podocytes for podocyte and cell cycle proteins
[4] = tested on: mouse podocytes; experiment: MTT cell proliferation assay, mouse podocytes; assay type: cell-based; conditions: at higher concentrations of ATRA than required with rat podocytes
Experimental: as §1, §2

[5] = transgenic podocytes, day 7 of growth restriction

`CC1=C(/C=C/C(C)=C/C=C/C(C)=C/C(=O)O)C(C)(C)CCC1` [ATRA, all-trans retinoic acid] was tested, and the “cells undergoing apoptosis (Hoechst staining)” value [1] was < 4 % of total cells, the “nephrin protein level (Western blot)” value ([2]; 1 μM ATRA) was “increased the protein levels” and the “podocin protein level (Western blot)” value ([2]; 1 μM ATRA) was “increased the protein levels”. The “nephrin protein level (Western blot)” value ([2]; 5 μM ATRA) was “increased the protein levels”, the “podocin protein level (Western blot)” value ([2]; 5 μM ATRA) was “increased the protein levels” and the “cyclin A staining vs standard media” value ([3]; ATRA exposed group) was “decreased intensity of staining”. For the same molecule, the “cell number vs standard media” value ([3]; ATRA group, cyclin A staining) was “grossly decreased”, the “WT-1 staining vs standard media” value [3, 5] was “increased staining intensity” and the “cd2ap staining vs transgenic podocytes in standard media” value [3, 5] was “increased intensity of staining”. The “cell size and cell number vs standard media” value [3, 5] was “appeared larger and decreased in number; also recorded: increased cell size and decreased cell number”, the “CD2AP staining vs standard media group” value ([3]; transgenic podocytes, day 14 of growth restriction) was “increased staining intensity” and the “decrease in cell number” value ([3]; transgenic podocytes, day 14 time point) was “not as prominent”. For the same molecule, the MTT absorbance [4] was “significantly reduced MTT absorbance”.
